Entries after “also recorded” stand apart in the source; their conditions may differ. Like-named read-outs stand apart in the source and are kept apart here.
Tests used:
[1] = tolerance of long term application in vivo; design: species or system mice (C57B1/6 strain); details: five weeks, regime 5 + 2, female mice aged 42 weeks
Protocol: Female mice (C57B1/6 strain) at the age of 42 weeks were treated by intraperitoneal application of MCOPPB (10 mg/kg and 20 mg/kg) dissolved in phosphate buffer or by the buffer alone (vehicle) for five weeks in the regime 5 + 2 (5 days with the treatment, two days without) and followed for another two weeks. The weight and another physiological factors reflecting overall fitness were monitored.

[2] = p.o., cited from earlier work
kappa opioid receptor = kappa opioid receptor (Homo sapiens, UniProt P41145); details: cited from earlier work
delta opioid receptor = delta opioid receptor (Homo sapiens, UniProt P41143); details: cited from earlier work
[3] = oral dose of 10 mg/kg; cited from earlier work
senescent ARPE-1 cells = experiment: toxicity towards senescent ARPE-1 cells (GIEMSA staining, microscopy); assay type: cell-based, human; details: 10 µM, 48 hours; senescence induced by 200nM aphidicolin for three weeks; Figure 1
Protocol: (§1) hTERT RPE-1 human retinal epithelial cell line was obtained from ATTC. Cells were grown in DMEM medium (Sigma Aldrich) supplemented with 10% fetal bovine serum (FBS) and antibiotics (penicillin-streptomycin). MRC-5 human lung fibroblast cell line was obtained from ATTC. Cells were grown in DMEM (Sigma Aldrich) supplemented with 10% FBS and antibiotics (penicillin-streptomycin).
(§2) In human ARPE-1 human epithelial cells, senescence response - manifested by loss of proliferation, typical morphological changes and Senescence Associated Beta-galactosidase positivity - was induced by exposition to replication stress for prolonged time period. The induction involved 200nM aphidicolin continual treatment for three weeks. The senescent cells have been exposed to various doses of MCOPPB dissolved in water for 48 hours, the dose range spanned 100 nM - 50 µM. The number of surviving cells was evaluated immediately after the treatment either using GIMSA staining and microscopy-based evaluation of surviving cells and compared to parental exponentially growing ARPE-1 cells, which were exposed to MCOPPB as well. Control samples of senescent and parental cells, without MCOPPB treatment, were assessed, too. […]

[4] = animal studies, cited from earlier work
[5] = tested on: senescent cells (p16 positive cells); experiment: elimination of senescent cells in p16 luciferase reporter mouse; assay type: in vivo
Protocol: Reporter GMO mouse with integrated luciferase reporter under p16 promoter allows monitoring of aging on the molecular level by an increase of luminescence signal due to the accumulation of senescent cells (this mouse model is described in details in: Cell. 2013 Jan 17;152(1-2):340-51). Application of senolytics targets the p16 positive cells and leads to decrease in the luminescent signal. Naturally aged reporter mice were treated by the MCOPPB compound and luminescence signal level was measured over time.

[6] = tested on: parental (normal healthy) ARPE-1 cells; experiment: toxicity towards parental ARPE-1 cells (GIEMSA staining, microscopy); assay type: cell-based, human; details: 10 µM, 48 hours; Figure 1
Protocol: as §1, §2

mu opioid receptor = mu opioid receptor (Homo sapiens, UniProt P35372); details: cited from earlier work
[7] = cited from earlier work
[8] = molecular target: T1, NOP receptor in the mouse brain (Mus musculus, UniProt P35377); details: 10 mg/kg, p.o.; ex vivo; cited from earlier work
T1 construct: from tissue; host or cells: mouse brain

senescent MRC5 cells = experiment: toxicity towards senescent MRC5 cells (GIEMSA staining, microscopy); assay type: cell-based, human
Protocol: as §1
In human MRC-5 fibroblasts cells, senescence response - manifested by loss of proliferation, typical morphological changes and Senescence Associated Beta-galactosidase positivity - was induced by exposition to gamma radiation. The induction involved a single irradiation, total dose 15 Gy using Xstrahl RS 225 M RTG device set to 200KV 15mA (dose 3.8Gy/min). […] The number of surviving cells was evaluated immediately after the treatment either using GIMSA staining and microscopy-based evaluation of surviving cells and compared to parental exponentially growing MRC-5 cells.

[9] = dose not stated; cited from earlier work

Sequence of kappa opioid receptor (P41145 whole entry): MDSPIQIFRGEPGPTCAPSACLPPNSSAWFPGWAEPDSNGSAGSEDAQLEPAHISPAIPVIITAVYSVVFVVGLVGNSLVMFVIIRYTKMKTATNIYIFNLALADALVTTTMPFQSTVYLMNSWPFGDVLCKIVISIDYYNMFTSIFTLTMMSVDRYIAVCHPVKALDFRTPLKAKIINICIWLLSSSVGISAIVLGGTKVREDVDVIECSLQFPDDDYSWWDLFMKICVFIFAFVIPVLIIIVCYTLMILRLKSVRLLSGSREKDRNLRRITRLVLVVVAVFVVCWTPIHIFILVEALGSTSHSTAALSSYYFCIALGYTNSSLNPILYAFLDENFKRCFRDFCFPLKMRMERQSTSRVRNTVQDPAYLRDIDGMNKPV
Sequence of mu opioid receptor (P35372 whole entry, species assumed): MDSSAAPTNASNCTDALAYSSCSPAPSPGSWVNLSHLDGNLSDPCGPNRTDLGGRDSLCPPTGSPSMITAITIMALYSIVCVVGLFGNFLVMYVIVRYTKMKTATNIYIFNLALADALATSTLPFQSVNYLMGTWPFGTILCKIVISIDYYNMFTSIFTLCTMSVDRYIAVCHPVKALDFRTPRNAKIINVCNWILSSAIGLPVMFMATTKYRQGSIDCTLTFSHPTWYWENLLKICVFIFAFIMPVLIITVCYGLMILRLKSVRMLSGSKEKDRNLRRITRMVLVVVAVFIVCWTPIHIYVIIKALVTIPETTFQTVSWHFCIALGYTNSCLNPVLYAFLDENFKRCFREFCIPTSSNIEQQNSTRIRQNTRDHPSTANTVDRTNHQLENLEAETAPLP
T1 sequence (P35377 whole entry): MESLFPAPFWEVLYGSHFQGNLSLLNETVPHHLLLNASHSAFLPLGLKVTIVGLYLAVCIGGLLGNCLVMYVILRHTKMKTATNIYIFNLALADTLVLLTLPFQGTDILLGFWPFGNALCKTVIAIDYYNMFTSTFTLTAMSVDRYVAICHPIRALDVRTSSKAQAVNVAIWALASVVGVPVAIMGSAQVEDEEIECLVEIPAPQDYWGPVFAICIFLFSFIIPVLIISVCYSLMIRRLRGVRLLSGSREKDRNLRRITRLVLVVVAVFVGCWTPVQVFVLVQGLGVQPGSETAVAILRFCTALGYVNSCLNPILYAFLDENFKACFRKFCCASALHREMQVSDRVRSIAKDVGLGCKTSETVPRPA
Sequence of delta opioid receptor (P41143 whole entry): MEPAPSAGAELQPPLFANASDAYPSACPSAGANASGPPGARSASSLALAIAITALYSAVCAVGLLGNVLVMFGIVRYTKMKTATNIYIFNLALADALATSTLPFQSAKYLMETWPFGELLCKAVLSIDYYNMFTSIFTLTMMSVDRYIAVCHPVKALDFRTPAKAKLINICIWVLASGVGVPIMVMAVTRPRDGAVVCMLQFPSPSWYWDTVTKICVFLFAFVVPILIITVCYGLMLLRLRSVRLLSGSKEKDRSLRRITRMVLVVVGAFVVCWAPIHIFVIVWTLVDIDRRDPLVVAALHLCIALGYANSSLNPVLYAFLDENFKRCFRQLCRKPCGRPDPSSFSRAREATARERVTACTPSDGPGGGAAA

CC1(N2CCC(n3c([C@@H]4CCCNC4)nc4ccccc43)CC2)CCCCCCC1 [MCOPPB, 1-[1-(1-methylcyclooctyl)-4-piperidinyl]-2-[(3R)-3-piperidinyl]-1H-benzimidazole]
tolerance by the animals ([1]; 10 mg/kg intraperitoneal): well tolerated
tolerance by the animals ([1]; 20 mg/kg intraperitoneal): well tolerated
anxiolytic-like effects ([2]; 10 mg/kg): elicited anxiolytic-like effects
anxiolytic effect after repeated administration ([2]; 10 mg/kg, repeated administration for 5 days): still effective as an anxiolytic agent
shape of response curve [2]: bell-shaped response curve
affinity for the kappa opioid receptor (kappa opioid receptor): weak affinity
binding at the delta opioid receptor (delta opioid receptor): negligible binding
locomotor activity [3]: did not affect
toxicity towards the senescent cells (senescent ARPE-1 cells): cell deterioration and cell loss; also recorded: selective toxicity
sedative side effects ([4]; appear only at much higher doses than the effective anxiolytic dose range): only slight sedative side effects
anxiolytic effects [4]: potent anxiolytic effects
inhibition of memory or motor function [4]: no inhibition of memory or motor function
whole body luminescent signals ([5]; 12-16 months old p16 reporter mice, treated for two weeks, versus vehicle, Figure 6): decrease of the luminescence signal
whole body luminescent signal ([5]; 12 month old p16 reporter mouse, after three weeks of treatment, Figure 5): rapid decrease of the signal
luminescence signal ([5]; naturally aged reporter mice, compared to controls, figures 5 and 6): decrease in the luminescence signal
adverse effects on the parental cells [6]: no adverse effects
affinity for the mu opioid receptor (mu opioid receptor): moderate affinity
memory ([7]; oral dose of 10 mg/kg): did not affect
signaling through the NOP receptor in the mouse brain [8]: inhibited signaling
toxicity towards the senescent cells (senescent MRC5 cells; 5 µM, 48 hours, senescence induced by gamma radiation 15 Gy, Figure 3): selective toxicity
toxicity towards the senescent cells (senescent MRC5 cells; 10µM for 48 hours (legend of Figure 3)): cell deterioration and cell loss

CN1C(=O)CN=C(c2ccccc2)c2cc(Cl)ccc21 [diazepam, reference compound]
anxiolytic-like effects ([2]; 3 mg/kg): elicited anxiolytic-like effects
memory ([7]; dose not stated): caused memory deficits
ethanol-induced hypnosis [9]: enhanced ethanol-induced hypnosis

From EP3552605A1 (priority 2018, dated 2019)
